Assay results published in patent US20220281930A1, “COMPOSITIONS AND METHODS FOR THE TREATMENT OF PATHOLOGICAL PAIN AND ITCH” (DUKE UNIVERSITY, priority 2019, published 2022).

How the values were obtained:
KCC2 promoter = assay: KCC2-LUC luciferase primary screen in primary cortical neurons; assay type: cell-based, mouse; details: Natural Compounds; rank score; 100 nM, 48 h
Description: Cytosine arabinoside ([…]) was added to cultures on the second day after seeding [2 d in vitro (DIV)] to inhibit the proliferation of non-neuronal cells. Cell suspension was plated at a density of 1×10^6 cells/ml onto 24-well tissue-culture dishes coated with poly-d-lysine.
LUC activity was then determined for each compound. Culture supernatant was removed and cells were lysed with 150 μl lysis buffer (Targeting Systems CA, USA cat. CLR1). LUC activity was measured with a RedLuciferase Assay kit (Targeting Systems cat. FLAR) according to the manufacturer's instructions. A Veritas microplate luminometer was used to measure luminescence; for each treatment triplicates of 40 μl cell lysates (from each 24-well tissue-culture dish) were used and 25 μl substrate was injected per well. […] Relative Light units (RLU) for each treatment was derived from Light Units (compound treatment)/vehicle treatment (0.5% DMSO).
The primary screen encompassed three levels of LUC measurements. […] Each compound was ranked based on composite scores from primary and secondary screening.

KCC2 protein = assay: KCC2 immuno-staining morphometry of spinal cord dorsal horn; assay type: in vivo, mouse; details: KP 10 mg/kg; nerve constriction injury and CFA inflammatory pain models
Description: All mice were deeply anaesthetized with isoflurane and then transcardially perfused with ice-cold 4% paraformaldehyde in 0.1 M phosphate buffer, pH 7.4 (4% PFA). Dissected spinal cord samples were then post-fixed overnight in 4% PFA at 4° C., cryoprotected in a 20% sucrose solution in PBS at 4° C., frozen in Tissue-Tek OCT (Sakura), and stored at −80° C. until sectioning. Samples were sectioned at 20 μm using a cryostat (Microm HM 505N). The sections were blocked with 2% bovine serum albumin (BSA) in PBS with 0.3% Triton X-100 (Blocking solution) at room temperature for 1 h. The sections were treated with primary antibody in blocking solution at 4° C. overnight. The sections were washed three times followed by secondary antibody treatment at 4° C. for 2 hours. Anti-KCC2 antibody was validated as described above for immuno-cytochemistry. The goat anti-rabbit IgG Alexa Fluor 488 was obtained from Invitrogen (A-11008). […]
With the aforementioned findings and in view of the SCDH as the likely site of analgesic action of KP (Coull et al., 2003, Nature 424:938-942; Gagnon et al., 2013, Nat Med 19:1524-1528), SCDH KCC2 expression and function in nerve injury and response to KP was assessed. […] SCDH KCC2 protein expression was measured morphometrically after KCC2 immunolabeling using SCDH laminae I-II as the region-of-interest (FIG. 5B).

CDKs = assay: DARTS assay, CDKs; assay type: binding, rat; details: 20 μM KP
Description: Cultured primary rat cortical neurons were treated with either vehicle DMSO (0.1%) or 20 μM KP for 30 h. Cells were lysed in ice-cold lysis buffer (Tris.Cl pH8 50 mM, NaCl 150 mM, NP40 0.5%, N-dodecyl-b-D-maltoside 0.5%, Phosphatase Inhibitor (Pierce #88667) and Protease Inhibitor (Roche #11836153001)). Protein concentrations were determined by Bio-Rad DC Protein Assay kit using bovine albumin as standard. All steps were performed on ice. Samples were warmed to room temperature and digested with pronase (final concentration 1:500) for 30 min at 30° C. Digestion was halted using 0.5M EDTA. Only proteins not bound to KP were digested. The protein mixture was dialyzed using dialysis cassettes (Thermo Fisher 66203, 2K MWCO) and analyzed by LC-MS/MS method to identify proteins that are bound to KP, the latter step carried out in the Duke Proteomics Core Laboratory.
A drug affinity responsive target stability (DARTS) assay (Lomenick, et al., 2009, Proc Natl Acad Sci USA 106:21984-21989) was used to study direct binding of KP to GSK3ß (FIG. 8A) in primary cortical neurons. The findings were consistent with previous reports in cell lines (Knockaert, et al., 2002, The Journal of biological chemistry 277:25493-25501) yet novel in primary neurons. […]

ß-cat = ß-cat nuclear translocation in primary neurons, immunolabeling; assay type: cell-based, rat; details: KP treatment
Description: Immunocytochemistry labeling of cultured neuronal cells was carried out as previously described (Liedtke et al., 2013, Small 9, 1066-1075; Yeo et al., 2009, J Neurosci 29:14652-14662; Yeo et al., 2013, Proc Natl Acad Sci USA 110:4315-4320). Primary antibodies are shown in the antibody table. Anti-KCC2 primary antibodies were validated with developing rat primary cortical neurons; we observed an increase in staining pattern that tightly matched increase of KCC2 mRNA expression (Liedtke et al., 2013, Small 9:1066-1075; Yeo et al., 2009, J Neurosci 29:14652-14662.; Yeo et al., 2013, Proc Natl Acad Sci USA 110:4315-4320). Secondary antibodies used were goat anti-mouse IgG Alexa Fluor 594 (Invitrogen A11032) and goat anti-rabbit IgG Alexa Fluor 594 (Invitrogen A11012). DAPI stain was obtained from Sigma Aldrich (D9542). Stained cells were observed using an inverted confocal microscope (Zeiss LSM780).
We obtained stacks of images recorded at 0.35 μm intervals through separate channels with a 63× oil-immersion lens (NA, 1.40, refraction index, 1.45). Zen software (Zeiss) was used to construct composite images from each optical series by combining the images recorded through the different channels, and the same software was used to obtain Z projection images (image resolution: 1024×1024 pixels; pixel size: 0.11 μm). ImageJ was used for morphometry. […]

N2a cultured cells = assay: Neuronalization of N2a cultured cells; assay type: cell-based, mouse; details: KP 0.2 μM for 3 days

O=C1Cc2c([nH]c3ccc(Br)cc23)-c2ccccc2N1 [kenpaullone, 9-bromo-7,12-dihydro-indolo [3,2-d] [1]benzazepin-6(5H)-one]
Luciferase Score (triplicates) (KCC2 promoter): 2
KCC2 protein expression in SCDH (KCC2 protein): increases KCC2 protein expression
binding of KP to CDKs (CDKs): not identified
catenin translocation into the nucleus (FIG. 9) (ß-cat): significantly increases
neuronal differentiation (N2a cultured cells): increased process formation
